Laboratory results reported in ChEMBL document CHEMBL4421728, “Bach1 Inhibitors in Combination with Nrf2 Activators and Pharmaceutical Compositions Thereof” (2017).

Columns and labels:
[1] = target: T1, Transcription regulator protein BACH1 (Homo sapiens) (UniProt O14867); assay: Inhibition of Bach1 in normal human lung fibroblasts assessed as induction of HMOX protein expression at 0.625 uM incubated for 16 to 18 hrs in presence of 0.0024 uM Nrf2 activator Bardoxolone methyl by immunostaining relative to control
T1 sequence (whole entry): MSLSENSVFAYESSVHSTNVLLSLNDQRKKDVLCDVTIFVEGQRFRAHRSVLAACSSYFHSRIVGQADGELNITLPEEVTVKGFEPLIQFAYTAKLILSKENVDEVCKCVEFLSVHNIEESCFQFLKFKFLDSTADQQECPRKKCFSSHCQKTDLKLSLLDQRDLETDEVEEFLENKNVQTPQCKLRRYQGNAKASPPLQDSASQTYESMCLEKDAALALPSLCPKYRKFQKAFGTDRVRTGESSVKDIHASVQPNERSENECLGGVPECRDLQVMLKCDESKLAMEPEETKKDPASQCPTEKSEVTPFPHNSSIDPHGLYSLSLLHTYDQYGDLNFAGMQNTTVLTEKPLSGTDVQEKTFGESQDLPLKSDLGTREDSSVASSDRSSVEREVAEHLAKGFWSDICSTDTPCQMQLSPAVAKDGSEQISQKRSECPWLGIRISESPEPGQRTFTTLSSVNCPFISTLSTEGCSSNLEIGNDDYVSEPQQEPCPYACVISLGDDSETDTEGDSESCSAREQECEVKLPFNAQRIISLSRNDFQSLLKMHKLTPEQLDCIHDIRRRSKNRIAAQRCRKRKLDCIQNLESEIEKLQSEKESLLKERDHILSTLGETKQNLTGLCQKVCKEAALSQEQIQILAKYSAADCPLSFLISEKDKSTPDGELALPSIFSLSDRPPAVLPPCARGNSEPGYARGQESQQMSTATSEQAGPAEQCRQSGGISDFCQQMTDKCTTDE

[2] = target: T1, Transcription regulator protein BACH1 (Homo sapiens); assay: Inhibition of Bach1 in normal human lung fibroblasts assessed as induction of HMOX protein expression at 1.25 uM incubated for 16 to 18 hrs in presence of 0.0048 uM Nrf2 activator Bardoxolone methyl by immunostaining relative to control
[3] = target: T1, Transcription regulator protein BACH1 (Homo sapiens); assay: Inhibition of Bach1 in normal human lung fibroblasts assessed as induction of HMOX protein expression at 0.078 uM incubated for 16 to 18 hrs in presence of 0.0097 uM Nrf2 activator Bardoxolone methyl by immunostaining relative to control
[4] = target: T1, Transcription regulator protein BACH1 (Homo sapiens); assay: Inhibition of Bach1 in normal human lung fibroblasts assessed as induction of HMOX protein expression at 0.625 uM incubated for 16 to 18 hrs in presence of 0.0097 uM Nrf2 activator Bardoxolone methyl by immunostaining relative to control
[5] = target: T1, Transcription regulator protein BACH1 (Homo sapiens); assay: Inhibition of Bach1 in normal human lung fibroblasts assessed as induction of HMOX protein expression at 0.625 uM incubated for 16 to 18 hrs in presence of 0.019 uM Nrf2 activator Bardoxolone methyl by immunostaining relative to control
[6] = target: T1, Transcription regulator protein BACH1 (Homo sapiens); assay: Inhibition of Bach1 in normal human lung fibroblasts assessed as induction of HMOX protein expression at 2.5 uM incubated for 16 to 18 hrs in presence of 0.019 uM Nrf2 activator Bardoxolone methyl by immunostaining relative to control
[7] = target: T1, Transcription regulator protein BACH1 (Homo sapiens); assay: Inhibition of Bach1 in normal human lung fibroblasts assessed as induction of HMOX protein expression at 0.312 uM incubated for 16 to 18 hrs in presence of 0.039 uM Nrf2 activator Bardoxolone methyl by immunostaining relative to control
[8] = target: T1, Transcription regulator protein BACH1 (Homo sapiens); assay: Inhibition of Bach1 in normal human lung fibroblasts assessed as induction of HMOX protein expression at 0.312 uM incubated for 16 to 18 hrs in presence of 0.078 uM Nrf2 activator Bardoxolone methyl by immunostaining relative to control
[9] = target: T1, Transcription regulator protein BACH1 (Homo sapiens); assay: Inhibition of Bach1 in normal human lung fibroblasts assessed as induction of HMOX protein expression at 0.039 uM incubated for 16 to 18 hrs in presence of 0.312 uM Nrf2 activator Bardoxolone methyl by immunostaining relative to control
[10] = target: T1, Transcription regulator protein BACH1 (Homo sapiens); assay: Inhibition of Bach1 in normal human lung fibroblasts assessed as induction of HMOX protein expression at 0.625 uM incubated for 16 to 18 hrs in presence of 0.312 uM Nrf2 activator Bardoxolone methyl by immunostaining relative to control
[11] = target: T1, Transcription regulator protein BACH1 (Homo sapiens); assay: Inhibition of Bach1 in normal human lung fibroblasts assessed as induction of HMOX protein expression at 2.5 uM incubated for 16 to 18 hrs in presence of 0.312 uM Nrf2 activator Bardoxolone methyl by immunostaining relative to control

Q: For `CNC(=O)c1ccc2c(c1)nc(Nc1nc3ccc(OC(F)(F)F)cc3s1)n2C`, which fold change (FC) [1] is on record?
A: 15.7

Q: What about the fold change (FC) [2] of the same compound?
A: 17.3

Q: And the fold change (FC) [3]?
A: 8.43

Q: And the fold change (FC) [4]?
A: 17.2

Q: And the fold change (FC) [5]?
A: 16.8

Q: What about the fold change (FC) [6] of the same compound?
A: 17

Q: What about the fold change (FC) [7] of the same compound?
A: 19.6

Q: What about the fold change (FC) [8] of the same compound?
A: 21.1

Q: What about the fold change (FC) [9] of the same compound?
A: 17.4

Q: What about the fold change (FC) [10] of the same compound?
A: 12.7

Q: And the fold change (FC) [11]?
A: 10
